Laboratory results from patent US9394284B2, “Compounds act at multiple prostaglandin receptors giving a general anti-inflammatory response” (Allergan, Inc., priority 2010, dated 2016).

Key:
Format in all cases: cell-based
[1] = molecular target: T1, human prostanoid DP1 receptor (Homo sapiens, UniProt Q13258); test: FLIPR Ca2+ signaling antagonist assay, DP1 receptor stable cell line; details: HEK-293 EBNA stable cell line; standard agonist BW 245C; NA = inactive (no antagonism or Kb 10,000 nM); PAg, Ag not defined
T1 construct: expressed in transfected cells
T1 sequence (Q13258 1-359): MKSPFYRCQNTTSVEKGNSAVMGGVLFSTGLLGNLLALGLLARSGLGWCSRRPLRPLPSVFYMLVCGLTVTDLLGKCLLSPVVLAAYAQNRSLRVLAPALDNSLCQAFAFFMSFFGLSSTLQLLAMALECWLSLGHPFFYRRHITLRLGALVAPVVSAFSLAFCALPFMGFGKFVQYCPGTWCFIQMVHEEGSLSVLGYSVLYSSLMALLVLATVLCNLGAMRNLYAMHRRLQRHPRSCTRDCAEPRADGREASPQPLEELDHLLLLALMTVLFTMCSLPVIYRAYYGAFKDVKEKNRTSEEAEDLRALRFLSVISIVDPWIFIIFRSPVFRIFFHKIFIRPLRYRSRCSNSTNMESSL
How it was run: (§1)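 Peak Fluo-4 fluorescence (ex 470–495, em 515–575 nm) was read for 3.5 min on FLIPR after agonist injection and expressed relative to 10^−6 M standard agonist. Cells were HEK-293 EBNA transfectants. Test compound was added 4.5 min beforehand at 0.1–30 μM, or 0.067–1 μM for TP.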

[2] = molecular target: T2, human prostanoid EP2 receptor (Homo sapiens, UniProt P43116); test: FLIPR Ca2+ signaling antagonist assay, EP2 receptor stable cell line; details: HEK-293 EBNA stable cell line; standard agonist PGE2; NA = inactive (no antagonism or Kb 10,000 nM); PAg, Ag not defined
T2 construct: expressed in transfected cells
How it was run: as §1

[3] = molecular target: T3, human prostanoid EP3 receptor (Homo sapiens, UniProt P43115); test: FLIPR Ca2+ signaling antagonist assay, EP3 receptor stable cell line; details: HEK-293 EBNA stable cell line; standard agonist PGE2; NA = inactive (no antagonism or Kb 10,000 nM); PAg, Ag not defined
T3 construct: expressed in transfected cells
T3 sequence (P43115 1-390): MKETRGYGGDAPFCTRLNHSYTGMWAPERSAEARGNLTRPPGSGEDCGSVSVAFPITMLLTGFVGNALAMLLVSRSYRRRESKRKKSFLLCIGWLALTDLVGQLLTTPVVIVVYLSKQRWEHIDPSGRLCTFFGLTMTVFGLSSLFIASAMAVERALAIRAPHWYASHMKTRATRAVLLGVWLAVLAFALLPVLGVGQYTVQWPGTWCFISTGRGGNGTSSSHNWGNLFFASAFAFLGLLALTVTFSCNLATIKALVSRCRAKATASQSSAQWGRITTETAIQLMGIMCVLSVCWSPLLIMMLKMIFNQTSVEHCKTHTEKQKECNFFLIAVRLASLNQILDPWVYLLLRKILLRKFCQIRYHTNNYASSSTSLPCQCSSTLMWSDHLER
Protocol: The above compounds were tested for PG antagonist activity as follows using human recombinant prostanoid receptor (DP1, EP1-4, FP, IP and TP) stable cell lines:
In order to measure the response of Gs and Gi coupled prostanoid receptors as a Ca^2+ signal, chimeric G protein cDNAs were used. Stable cell lines over-expressing human prostanoid DP1, EP1-4, FP, IP, and TP receptors were established as follows:
Briefly, human prostanoid DP1, EP2, and EP4 receptor cDNAs were co-transfected with chimeric Gqs cDNA containing a haemagglutanin (HA) epitope; human prostanoid EP3 receptors were co-transfected with chimeric Gqi-HA; human EP1, FP, IP, and TP receptor cDNAs were expressed with no exogenous G-proteins. Gqs and Gqi chimeric cDNAs (Molecular Devices, Sunnyvale, Calif., U.S.A.), as well as cDNAs of prostanoid receptors, were cloned into a pCEP4 vector with a hygromycin B selection marker. Transfection into HEK-293 EBNA (Epstein-Barr virus nuclear antigen) cells was achieved by the FuGENE 6 transfection Reagent (Roche Applied Science, Indianapolis, Ind., USA). Stable transfectants were selected according to hygromycin resistance. Because Gqs and Gqi contained an HA epitope, G-protein expression was detected by Western blotting analysis using anti-mouse HA monoclonal antibody and horseradish peroxidase (HRP)-conjugated secondary antibody, while functional expression of prostanoid receptors was detected by FLIPR screening (Matias et al., 2004). These stable cell lines were validated using previously published antagonists at 10 μM against serial dilutions of standard agonists by FLIPR functional assays for Ca^2+ Signaling (as described below).
Ca^2+ signaling studies were performed using a FLIPR TETRA system (Molecular Devices, Sunnyvale, Calif., USA) in the 384-format. This is a high-throughput instrument for cell-based assays to monitor Ca^2+ signaling associated with GPCRs and ion channels. Cells were seeded at a density of 5×10^4 cells/well in BioCoat poly-D-lysine coated, black wall, clear bottom 384-well plates (BD Biosciences, Franklin lakes, NJ, USA) and allowed to attach overnight in an incubator at 37° C. The cells were then washed twice with HBSS-HEPES buffer (Hanks' balanced salt solution without bicarbonate and phenol red, 20 mM HEPES, pH 7.4) using an ELx405 Select CW Microplate Washer (BioTek, Winooski, Vt., USA). After 60 min of dye-loading in the dark using the Ca^2+-sensitive dye Fluo-4AM (Invitrogen, Carlsbad, Calif., USA), at a final concentration of 2×10^−6M, the plates were washed 4 times with HBSS-HEPES buffer to remove excess dye and leaving 50 μl of buffer in each well. The plates were then placed in the FLIPR TETRA instrument and allowed to equilibrate at 37° C. AGN-211377 was added in a 25 μl volume to each well to give final concentrations of 0.1 μM, 0.3 μM, 1 μM, 3 μM, 10 μM, and 30 μM; or 0.067 μM, 0.1 μM, 0.2 μM, 0.3 μM, 0.67 μM, and 1 μM for cells over-expressing TP receptors. After 4.5 minutes, a 7-point serial dilution of the standard agonist for the corresponding receptor, in a 25 μl volume was injected at the final concentrations from 10^−11M to 10^−5M in 10-fold serial dilution increments for cells expressing human recombinant DP1, EP1, EP2, EP3, EP4, FP, and IP receptors. The dose range for the standard agonist for human recombinant TP receptors was from 10^−12 M to 10^−6 M. HBSS-HEPES buffer was used as the negative control for the standard agonists. Cells were excited with LED (light emitting diode) excitation at 470-495 nm and emission was measured through an emission filter at 515-575 nm. Assay plates were read for 3.5 minutes using the FLIPR^TETRA. The peak increase in fluorescence intensity was recorded for each well. On each plate, negative controls, dose response of positive controls, and co-treatments of antagonist-agonist for each dose were in triplicates.
Standard agonists were as follows: DP=BW 245C, EP1-EP4=PGE2, FP=17-phenyl-PGF2α, IP=Cicaprost, and TP=U-46619. […]

[4] = molecular target: T4, human prostanoid EP4 receptor (Homo sapiens, UniProt P35408); test: FLIPR Ca2+ signaling antagonist assay, EP4 receptor stable cell line; details: HEK-293 EBNA stable cell line; standard agonist PGE2; NA = inactive (no antagonism or Kb 10,000 nM); PAg, Ag not defined
T4 construct: expressed in transfected cells
How it was run: as §1

T2 sequence (P43116 whole entry): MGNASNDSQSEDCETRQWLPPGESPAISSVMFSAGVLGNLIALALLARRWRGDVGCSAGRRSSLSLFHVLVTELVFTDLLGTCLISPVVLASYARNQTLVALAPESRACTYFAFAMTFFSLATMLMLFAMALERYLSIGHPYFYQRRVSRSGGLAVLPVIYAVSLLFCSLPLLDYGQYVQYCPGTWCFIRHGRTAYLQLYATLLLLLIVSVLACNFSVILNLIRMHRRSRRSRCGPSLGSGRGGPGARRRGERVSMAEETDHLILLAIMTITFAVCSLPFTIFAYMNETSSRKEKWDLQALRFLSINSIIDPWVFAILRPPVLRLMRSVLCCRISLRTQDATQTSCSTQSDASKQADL
T4 sequence (P35408 whole entry): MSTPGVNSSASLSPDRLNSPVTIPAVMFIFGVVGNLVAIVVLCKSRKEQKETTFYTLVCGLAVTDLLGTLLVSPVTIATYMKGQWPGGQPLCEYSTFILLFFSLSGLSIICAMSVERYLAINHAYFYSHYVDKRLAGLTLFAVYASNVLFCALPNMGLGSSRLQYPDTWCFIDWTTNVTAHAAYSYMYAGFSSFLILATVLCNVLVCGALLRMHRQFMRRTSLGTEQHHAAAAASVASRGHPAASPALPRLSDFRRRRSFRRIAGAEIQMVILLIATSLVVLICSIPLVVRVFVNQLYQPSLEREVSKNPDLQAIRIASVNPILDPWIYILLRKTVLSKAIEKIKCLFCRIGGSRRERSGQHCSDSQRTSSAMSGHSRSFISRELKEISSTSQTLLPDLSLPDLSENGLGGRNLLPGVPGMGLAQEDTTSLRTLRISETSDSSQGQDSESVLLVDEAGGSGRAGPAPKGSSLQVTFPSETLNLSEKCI

SMILES | Kb [1] [nM] | Kb [2] [nM] | Kb [3] [nM] | Kb [4] [nM] | DP1 (FLIPR) Kb [1] | EP2 (FLIPR) Kb [2]
Cc1cc(CCC(=O)NS(=O)(=O)C(F)(F)F)nn1Cc1cc(Cl)ccc1OCC1CCCC1 [Example 43, N-(3-[1-(5-Chloro-2-cyclopentylmethoxybenzyl)-5-methyl-1H-pyrazol-3-yl]-propionyl)C,C,C-trifluoromethanesulfon amide] | – | – | 1700 | 80 | PAg | PAg
Cc1cc(CCC(=O)O)nn1Cc1cc(Cl)ccc1OCCCC(C)C [Example 40, 3-[1-(5-Chloro-2-(4-methylpentyloxy)benzyl)-5-methyl-1H-pyrazol-3-yl]-propionic acid] | – | 1400 | 5700 | 1700 | PAg | –
Cc1cc(CCC(=O)NS(=O)(=O)c2ccccc2)nn1Cc1cc(Cl)ccc1OCc1ccc(Cl)cc1 [Example 24, N-(3-[1-(5-Chloro-2-(4-chlorobenzyloxy)benzyl)-5-methyl-1H-pyrazol-3-yl]-propionyl)benzenesulfonamide] | 800 | 5500 | 2500 | 900 | – | –

More lines, now with the values ahead:

Kb [1] [nM] | Kb [2] [nM] | Kb [3] [nM] | Kb [4] [nM] | DP1 (FLIPR) Kb [1] | EP2 (FLIPR) Kb [2] | SMILES
100 | 2200 | 2800 | 1500 | – | – | Cc1cc(CCC(=O)O)nn1Cc1cc(C(F)(F)F)ccc1OCc1ccc(Cl)cc1 [Example 52, 3-[1-[2-(4-Chloro-benzyloxy)-5-trifluoromethyl-benzyl]-5-methyl-1H-pyrazol-3-yl]-propionic acid]
600 | 500 | 6600 | 7000 | – | – | Cc1cc(CCC(=O)O)nn1Cc1cc(OC(F)(F)F)ccc1OCc1ccc(Cl)cc1 [Example 51, 3-[1-[2-(4-Chloro-benzyloxy)-5-trifluoromethoxy-benzyl]-5-methyl-1H-pyrazol-3-yl]-propionic acid]
– | 4500 | 7100 | 200 | Ag | – | Cc1cc(CCC(=O)O)nn1Cc1cc(OC(F)(F)F)ccc1OCC1CCCC1 [Example 50, 3-[1-(2-Cyclopentylmethoxy-5-trifluoromethoxy-benzyl)-5-methyl-1H-pyrazol-3-yl]-propionic acid]
